From ChEMBL document CHEMBL4627377, “Betulin isolated from Pyrola incarnata Fisch. inhibited lipopolysaccharide (LPS)-induced neuroinflammation with the guidance of computer-aided drug design” (Bioorg Med Chem Lett, 2020)
Activity calls are given as the source filed them. The rule behind the calls is not given here.

Experiments:
BV-2 [1] = assay: Inhibition of LPS-induced TNF-alpha production in […] BV2 cells at 250 ug/ml preincubated for 4 hrs followed by LPS stimulation and measured after 24 hrs by ELISA; format: functional, cell-based; conditions: Mus musculus
BV-2 [2] = assay: Inhibition of LPS-induced IL-1beta production in […] BV2 cells at 250 ug/ml preincubated for 4 hrs followed by LPS stimulation and measured after 24 hrs by ELISA; format: functional, cell-based; conditions: Mus musculus
BV-2 [3] = assay: Cytotoxicity against […] BV2 cells assessed as survival rate at 250 ug/ml; format: cell-based; conditions: mouse
BV-2 [4] = assay: Inhibition of LPS-induced IL6 production in […] BV2 cells at 20 ug/ml preincubated for 4 hrs followed by LPS stimulation and measured after 24 hrs by ELISA; format: functional, cell-based; conditions: Mus musculus
BV-2 [5] = assay: Inhibition of LPS-induced NO release in […] BV2 cells at 20 ug/ml preincubated for 4 hrs followed by LPS stimulation and measured after 24 hrs by Griess reagent based assay; format: functional, cell-based; conditions: Mus musculus
BV-2 [6] = assay: Inhibition of LPS-induced JNK-54 activation in […] BV2 cells preincubated for 4 hrs followed by LPS stimulation and measured after 24 hrs by Western blot analysis; format: functional, cell-based; conditions: Mus musculus
BV-2 [7] = assay: Inhibition of LPS-induced NO release in […] BV2 cells at 62.5 to 250 ug/ml preincubated for 4 hrs followed by LPS stimulation and measured after 24 hrs by Griess reagent based assay; format: functional, cell-based; conditions: Mus musculus
BV-2 [8] = assay: Inhibition of LPS-induced JNK-54 phosphorylation in […] BV2 cells at 62.5 to 250 ug/ml preincubated for 4 hrs followed by LPS stimulation and measured after 24 hrs by Western blot analysis; format: functional, cell-based; conditions: Mus musculus
BV-2 [9] = assay: Inhibition of LPS-induced iNOS expression in […] BV2 cells at 250 ug/ml preincubated for 4 hrs followed by LPS stimulation and measured after 24 hrs by Western blot analysis; format: functional, cell-based; conditions: Mus musculus
BV-2 [10] = assay: Cytotoxicity against […] BV2 cells assessed as survival rate at 125 ug/ml; format: cell-based; conditions: mouse
BV-2 [11] = assay: Inhibition of LPS-induced IL6 production in […] BV2 cells preincubated for 4 hrs followed by LPS stimulation and measured after 24 hrs by ELISA; format: functional, cell-based; conditions: Mus musculus
BV-2 [12] = assay: Inhibition of LPS-induced JNK-46 activation in […] BV2 cells preincubated for 4 hrs followed by LPS stimulation and measured after 24 hrs by Western blot analysis; format: functional, cell-based; conditions: Mus musculus
BV-2 [13] = assay: Inhibition of LPS-induced TNF-alpha production in […] BV2 cells preincubated for 4 hrs followed by LPS stimulation and measured after 24 hrs by ELISA; format: functional, cell-based; conditions: Mus musculus
BV-2 [14] = assay: Inhibition of LPS-induced NF-kappaB/p65 nuclear translocation in […] BV2 cells assessed as reduction in p65/NFkappaB level at 250 ug/ml by DAPI staining based fluorescence microscopic analysis; format: functional, cell-based; conditions: Mus musculus
BV-2 [15] = assay: Inhibition of LPS-induced IL-1beta production in […] BV2 cells preincubated for 4 hrs followed by LPS stimulation and measured after 24 hrs by ELISA; format: functional, cell-based; conditions: Mus musculus
BV-2 [16] = assay: Inhibition of LPS-induced JNK-46 phosphorylation in […] BV2 cells at 62.5 to 250 ug/ml preincubated for 4 hrs followed by LPS stimulation and measured after 24 hrs by Western blot analysis; format: functional, cell-based; conditions: Mus musculus
BV-2 [17] = assay: Cytotoxicity against […] BV2 cells assessed as survival rate at 500 ug/ml; format: cell-based; conditions: mouse

C[C@@H]1CC[C@]2(C(=O)O[C@H]3O[C@@H](CO)[C@H](O)[C@@H](O)[C@@H]3O)CC[C@]3(C)C(=CC[C@@H]4[C@@]5(C)CC[C@H](O)[C@@](C)(CO)[C@@H]5CC[C@]43C)[C@@H]2[C@]1(C)O
inhibition (BV-2 [1]): Active | inhibition (BV-2 [2]): Active | Activity (BV-2 [3]): Non-Toxic

COc1cc2c(cc1OC)C(=O)C(CC1CCN(Cc3ccccc3)CC1)C2 (configuration not stated)
inhibition (BV-2 [4]): Active | inhibition (BV-2 [5]): Active

C=C(C)[C@@H]1CC[C@]2(CO)CC[C@]3(C)[C@H](CC[C@@H]4[C@@]5(C)CC[C@H](O)C(C)(C)[C@@H]5CC[C@]43C)[C@@H]12 [BETULIN]
inhibition (BV-2 [6]): Dose-dependent effect | inhibition (BV-2 [7]): Active | inhibition (BV-2 [8]): Active | inhibition (BV-2 [9]): Active | Activity (BV-2 [10]): Non-Toxic | inhibition (BV-2 [11]): Dose-dependent effect | inhibition (BV-2 [12]): Dose-dependent effect | inhibition (BV-2 [13]): Dose-dependent effect | inhibition (BV-2 [14]): Active | inhibition (BV-2 [15]): Dose-dependent effect | inhibition (BV-2 [16]): Active

C[C@@H]1CC[C@]2(C(=O)O)CC[C@]3(C)C(=CC[C@@H]4[C@@]5(C)CC[C@H](O)[C@@](C)(CO)[C@@H]5CC[C@]43C)[C@@H]2[C@]1(C)O [ROTUNDIC ACID]
inhibition (BV-2 [1]): Active | inhibition (BV-2 [2]): Active | Activity (BV-2 [3]): Non-Toxic

C[C@H]1[C@H](C)CC[C@]2(C(=O)O)CC[C@]3(C)C(=CC[C@@H]4[C@@]5(C)CC[C@H](O)C(C)(C)[C@@H]5CC[C@]43C)[C@H]12 [URSOLIC ACID]
inhibition (BV-2 [1]): Active | inhibition (BV-2 [2]): Active | Activity (BV-2 [17]): Non-Toxic
